Two compounds from publication PMC9609801, “Nipecotic Acid Derivatives as Potent Agents against Neurodegeneration: A Preliminary Study” (Molecules, 2022) can be followed below.

This test addresses T1, soybean lipoxygenase (lipoxygenase type I-B) (Glycine max, UniProt P08170).
T1 construct: gene LOX1.1
T1 sequence (P08170 1-839): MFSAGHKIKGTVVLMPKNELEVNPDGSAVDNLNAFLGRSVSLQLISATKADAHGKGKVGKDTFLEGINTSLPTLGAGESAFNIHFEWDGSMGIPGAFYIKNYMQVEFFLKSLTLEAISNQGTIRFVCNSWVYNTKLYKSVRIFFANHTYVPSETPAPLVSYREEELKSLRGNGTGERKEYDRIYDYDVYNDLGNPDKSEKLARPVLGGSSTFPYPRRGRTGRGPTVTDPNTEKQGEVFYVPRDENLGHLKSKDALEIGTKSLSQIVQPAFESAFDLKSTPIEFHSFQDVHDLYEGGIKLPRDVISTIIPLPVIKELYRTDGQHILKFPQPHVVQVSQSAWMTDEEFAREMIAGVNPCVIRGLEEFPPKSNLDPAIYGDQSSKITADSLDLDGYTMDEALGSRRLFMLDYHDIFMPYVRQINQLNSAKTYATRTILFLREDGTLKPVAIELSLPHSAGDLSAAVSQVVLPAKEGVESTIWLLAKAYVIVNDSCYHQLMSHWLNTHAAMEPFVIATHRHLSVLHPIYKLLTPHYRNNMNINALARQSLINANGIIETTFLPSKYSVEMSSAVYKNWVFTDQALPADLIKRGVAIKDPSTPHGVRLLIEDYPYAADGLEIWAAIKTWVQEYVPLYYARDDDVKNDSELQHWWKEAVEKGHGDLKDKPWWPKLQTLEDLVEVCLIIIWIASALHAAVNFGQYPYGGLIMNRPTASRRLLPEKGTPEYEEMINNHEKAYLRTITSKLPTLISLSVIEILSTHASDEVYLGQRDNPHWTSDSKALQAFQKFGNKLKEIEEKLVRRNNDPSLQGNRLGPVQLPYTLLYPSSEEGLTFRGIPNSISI
Kind of test: linoleate oxidation at […] nm, % inhibition at […] μΜ. It is filed as biochemical. The following applies: read-out: % Inhibition (LOX).

As for `CCOC(=O)C1CCCN(C(=O)c2cc(C(C)(C)C)c(O)c(C(C)(C)C)c2)C1` (centres unmarked) [compound 1, Ethyl 1-(3,5-di-tert-butyl-4-hydroxybenzoyl)piperidine-3-carboxylate], the inhibition at 100 µM turned out to be 31%.
The value for `CCOC(=O)C1CCCN(C(=O)/C=C/c2cc(C(C)(C)C)c(O)c(C(C)(C)C)c2)C1` (centres unmarked) [compound 2, (E)-Ethyl 1-(3-(3,5-di-tert-butyl-4-hydroxyphenyl)acryloyl)piperidine-3-carboxylate] was 33%.

Usually inhibition stands for the percentage by which the read-out fell short of the control.
